Test results as given in ChEMBL document CHEMBL5236580, “Blocking Non-enzymatic Functions by PROTAC-Mediated Targeted Protein Degradation” (J Med Chem, 2022).
One block for each compound: values may come before it.

Assays:
[1] = target: Peptidyl-prolyl cis-trans isomerase FKBP1A (Homo sapiens, UniProt P62942); test: Induction of degradation of FKBP12 (unknown origin)
[2] = tested on: MV4-11; test: Induction of cell cycle arrest in human MV4-11 cells assessed as accumulation of cells at G2/M phase measured after 12 hrs; assay type: functional, cell-based; conditions: MV4-11, 12 h
[3] = target: Protein cereblon/Protein deacetylase HDAC6 (Homo sapiens, UniProt Q96SW2+Q9UBN7); test: PROTAC activity at CRBN/HDAC6 in human K562 cells assessed as degradation of HDAC6; assay type: cell-based
Sequence of Protein cereblon/Protein deacetylase HDAC6 (Q9UBN7 whole entry): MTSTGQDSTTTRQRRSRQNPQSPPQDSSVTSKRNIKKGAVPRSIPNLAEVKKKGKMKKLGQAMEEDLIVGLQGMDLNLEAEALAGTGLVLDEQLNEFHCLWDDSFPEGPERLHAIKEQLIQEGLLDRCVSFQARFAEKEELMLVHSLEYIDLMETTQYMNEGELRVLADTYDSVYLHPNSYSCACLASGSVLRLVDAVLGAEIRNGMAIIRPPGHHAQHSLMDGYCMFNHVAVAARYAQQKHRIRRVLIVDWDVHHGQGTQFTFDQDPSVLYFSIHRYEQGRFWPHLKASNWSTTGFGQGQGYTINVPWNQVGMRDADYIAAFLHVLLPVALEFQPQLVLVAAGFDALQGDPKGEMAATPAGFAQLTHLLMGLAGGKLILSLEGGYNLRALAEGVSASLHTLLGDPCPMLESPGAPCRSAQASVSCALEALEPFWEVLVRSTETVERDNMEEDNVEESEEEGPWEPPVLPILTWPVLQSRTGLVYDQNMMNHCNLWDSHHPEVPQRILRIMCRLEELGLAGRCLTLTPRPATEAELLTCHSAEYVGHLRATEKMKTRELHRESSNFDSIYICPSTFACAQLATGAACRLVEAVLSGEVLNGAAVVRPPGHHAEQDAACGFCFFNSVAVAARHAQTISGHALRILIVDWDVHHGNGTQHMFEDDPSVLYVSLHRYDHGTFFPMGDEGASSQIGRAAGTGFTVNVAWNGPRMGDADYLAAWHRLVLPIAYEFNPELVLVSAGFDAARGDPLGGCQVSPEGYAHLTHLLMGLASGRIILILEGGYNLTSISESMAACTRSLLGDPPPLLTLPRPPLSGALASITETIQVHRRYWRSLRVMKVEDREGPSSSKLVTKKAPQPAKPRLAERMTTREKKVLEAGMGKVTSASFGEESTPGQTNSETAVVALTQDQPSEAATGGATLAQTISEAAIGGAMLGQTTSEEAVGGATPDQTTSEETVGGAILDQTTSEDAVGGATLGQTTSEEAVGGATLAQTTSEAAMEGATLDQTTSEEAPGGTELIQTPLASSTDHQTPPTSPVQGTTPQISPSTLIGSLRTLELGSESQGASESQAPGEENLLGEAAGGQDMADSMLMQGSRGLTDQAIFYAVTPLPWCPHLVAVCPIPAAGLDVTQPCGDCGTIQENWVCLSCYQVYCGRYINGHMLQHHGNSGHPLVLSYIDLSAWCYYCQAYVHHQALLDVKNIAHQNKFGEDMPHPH
Sequence of Protein cereblon/Protein deacetylase HDAC6 (Q96SW2 whole entry): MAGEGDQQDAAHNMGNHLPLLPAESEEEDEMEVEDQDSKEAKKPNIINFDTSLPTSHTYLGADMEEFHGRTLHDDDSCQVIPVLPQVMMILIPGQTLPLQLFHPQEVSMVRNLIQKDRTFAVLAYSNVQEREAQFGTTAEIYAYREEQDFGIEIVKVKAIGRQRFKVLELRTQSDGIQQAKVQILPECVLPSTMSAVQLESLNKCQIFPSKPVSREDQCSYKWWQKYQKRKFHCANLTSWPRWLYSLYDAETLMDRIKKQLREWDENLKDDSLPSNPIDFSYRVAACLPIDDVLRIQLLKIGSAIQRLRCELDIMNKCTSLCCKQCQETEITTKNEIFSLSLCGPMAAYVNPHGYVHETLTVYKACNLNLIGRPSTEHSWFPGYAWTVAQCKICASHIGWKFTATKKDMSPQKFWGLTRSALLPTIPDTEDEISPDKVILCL

[4] = target: Protein cereblon/Protein deacetylase HDAC6 (Homo sapiens) (UniProt Q9UBN7+Q96SW2); test: PROTAC activity at CRBN/HDAC6 in human K562 cells assessed as degradation of HDAC6 relative to control; assay type: cell-based
Sequence of Protein cereblon/Protein deacetylase HDAC6 (Homo sapiens) (Q96SW2 whole entry, looked up): as the sequence (Q96SW2 whole entry) above
Sequence of Protein cereblon/Protein deacetylase HDAC6 (Homo sapiens) (Q9UBN7 whole entry, looked up): as the sequence (Q9UBN7 whole entry) above

[5] = target: T1, Histone-lysine N-methyltransferase EZH2 (Homo sapiens, UniProt Q15910); test: Induction of degradation of EZH2 in human EOL1 cells assessed as maximum degradation relative to control; assay type: cell-based
Target sequence in this assay (Q15910 whole entry, looked up): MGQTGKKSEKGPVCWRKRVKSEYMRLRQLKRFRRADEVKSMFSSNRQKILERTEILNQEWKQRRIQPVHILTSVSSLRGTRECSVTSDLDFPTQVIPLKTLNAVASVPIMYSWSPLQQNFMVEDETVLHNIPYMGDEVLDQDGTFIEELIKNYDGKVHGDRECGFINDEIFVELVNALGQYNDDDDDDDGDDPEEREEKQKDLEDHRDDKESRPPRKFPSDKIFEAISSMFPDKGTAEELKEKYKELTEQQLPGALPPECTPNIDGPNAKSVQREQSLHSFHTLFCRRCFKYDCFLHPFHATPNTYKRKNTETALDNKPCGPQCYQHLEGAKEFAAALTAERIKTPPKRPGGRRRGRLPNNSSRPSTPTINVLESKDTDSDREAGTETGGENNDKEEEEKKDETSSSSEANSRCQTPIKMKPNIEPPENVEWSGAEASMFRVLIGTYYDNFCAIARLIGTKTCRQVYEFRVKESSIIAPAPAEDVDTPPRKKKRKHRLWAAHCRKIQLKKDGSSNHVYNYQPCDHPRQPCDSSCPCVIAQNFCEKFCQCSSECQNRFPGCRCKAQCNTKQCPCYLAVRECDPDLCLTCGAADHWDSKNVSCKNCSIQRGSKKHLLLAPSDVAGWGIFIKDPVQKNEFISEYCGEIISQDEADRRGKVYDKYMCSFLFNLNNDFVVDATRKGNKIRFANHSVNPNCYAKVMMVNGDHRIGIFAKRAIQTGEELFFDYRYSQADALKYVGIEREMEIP

[6] = target: T1, Histone-lysine N-methyltransferase EZH2; test: Induction of degradation of EZH2 in human MV4-11 cells assessed as maximum degradation relative to control; assay type: cell-based
Target sequence in this assay (Q15910 whole entry, looked up): as above

[7] = target: T1, Histone-lysine N-methyltransferase EZH2; test: Inhibition of EZH2 (unknown origin)
Target sequence in this assay (Q15910 whole entry): as the sequence (Q15910 whole entry, looked up) above

[8] = target: T1, Histone-lysine N-methyltransferase EZH2; test: Induction of degradation of EZH2 in human MV4-11 cells; assay type: cell-based
Target sequence in this assay (Q15910 whole entry): as the sequence (Q15910 whole entry, looked up) above

[9] = target: T1, Histone-lysine N-methyltransferase EZH2; test: Induction of degradation of EZH2 in human EOL1 cells; assay type: cell-based
Target sequence in this assay (Q15910 whole entry): as the sequence (Q15910 whole entry, looked up) above

[10] = Antitumor activity against human MDSC cells xenografted in BALB/c mouse assessed as tumor growth inhibition relative to control; assay type: functional, Myeloid-derived suppressor cell
[11] = target: Ubiquitin carboxyl-terminal hydrolase 7 (Homo sapiens, UniProt Q93009); test: Induction of degradation of USP7 (unknown origin)
[12] = Antiproliferative activity against human MINO cells harbouring p53 mutant; assay type: functional, cell-based
[13] = tested on: JeKo-1; test: Antiproliferative activity against human JeKo-1 cells harbouring p53 mutant; assay type: functional, cell-based
[14] = target: T2, von Hippel-Lindau disease tumor suppressor/Focal adhesion kinase 1 (Mus musculus) (UniProt P34152+P40338); test: In vivo protac activity at VHL/FAK xenografted in CD-1 mouse liver assessed as reduct ion in FAK level at 80 mg/kg, sc measured after 96 hrs relative to control; assay type: functional, organism-based
T2 sequence (P34152 whole entry, looked up): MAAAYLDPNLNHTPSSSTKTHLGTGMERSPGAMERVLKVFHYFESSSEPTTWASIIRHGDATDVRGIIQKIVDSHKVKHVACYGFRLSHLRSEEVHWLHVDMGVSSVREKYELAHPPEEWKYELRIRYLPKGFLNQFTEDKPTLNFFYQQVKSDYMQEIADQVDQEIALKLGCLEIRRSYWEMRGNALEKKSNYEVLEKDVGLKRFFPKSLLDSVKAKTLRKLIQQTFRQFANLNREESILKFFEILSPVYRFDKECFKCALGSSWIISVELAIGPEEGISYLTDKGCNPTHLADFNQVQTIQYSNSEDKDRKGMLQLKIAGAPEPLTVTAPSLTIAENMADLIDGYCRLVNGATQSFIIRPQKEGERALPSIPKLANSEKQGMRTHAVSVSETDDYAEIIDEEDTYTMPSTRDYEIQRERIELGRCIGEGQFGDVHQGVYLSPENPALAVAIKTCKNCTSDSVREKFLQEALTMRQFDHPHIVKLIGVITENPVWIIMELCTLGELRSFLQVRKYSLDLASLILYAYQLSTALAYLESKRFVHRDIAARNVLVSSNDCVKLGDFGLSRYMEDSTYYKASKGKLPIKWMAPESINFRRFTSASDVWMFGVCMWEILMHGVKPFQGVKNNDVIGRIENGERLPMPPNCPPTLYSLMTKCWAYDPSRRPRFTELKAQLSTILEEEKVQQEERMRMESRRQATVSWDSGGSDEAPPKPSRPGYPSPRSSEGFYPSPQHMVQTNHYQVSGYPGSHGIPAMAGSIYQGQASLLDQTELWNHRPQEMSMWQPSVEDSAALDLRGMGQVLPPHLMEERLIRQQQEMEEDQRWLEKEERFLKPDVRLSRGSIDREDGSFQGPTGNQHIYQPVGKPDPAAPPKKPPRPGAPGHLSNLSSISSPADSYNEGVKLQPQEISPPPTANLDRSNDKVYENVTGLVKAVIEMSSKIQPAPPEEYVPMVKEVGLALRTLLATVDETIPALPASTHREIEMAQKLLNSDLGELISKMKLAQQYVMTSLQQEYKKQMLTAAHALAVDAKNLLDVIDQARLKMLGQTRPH
T2 sequence (P40338 whole entry, looked up): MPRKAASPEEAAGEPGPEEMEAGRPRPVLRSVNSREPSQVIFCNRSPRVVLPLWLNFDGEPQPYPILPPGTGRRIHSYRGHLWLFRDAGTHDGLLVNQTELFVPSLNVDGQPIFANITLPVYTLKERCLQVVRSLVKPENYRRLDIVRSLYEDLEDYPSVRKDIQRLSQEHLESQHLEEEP

[15] = target: T2, von Hippel-Lindau disease tumor suppressor/Focal adhesion kinase 1 (Mus musculus); test: In vivo protac activity at VHL/FAK xenografted in CD-1 mouse liver assessed as increased in FAK degradation at 80 mg/kg, sc incubated for 18 hrs relative to control; assay type: functional, organism-based
[16] = target: T3, Nicotinamide phosphoribosyltransferase (Homo sapiens, UniProt P43490); test: Induction of degradation NAMPT (unknown origin) assessed as maximum degradation relative to control
Target sequence in this assay (P43490 whole entry, looked up): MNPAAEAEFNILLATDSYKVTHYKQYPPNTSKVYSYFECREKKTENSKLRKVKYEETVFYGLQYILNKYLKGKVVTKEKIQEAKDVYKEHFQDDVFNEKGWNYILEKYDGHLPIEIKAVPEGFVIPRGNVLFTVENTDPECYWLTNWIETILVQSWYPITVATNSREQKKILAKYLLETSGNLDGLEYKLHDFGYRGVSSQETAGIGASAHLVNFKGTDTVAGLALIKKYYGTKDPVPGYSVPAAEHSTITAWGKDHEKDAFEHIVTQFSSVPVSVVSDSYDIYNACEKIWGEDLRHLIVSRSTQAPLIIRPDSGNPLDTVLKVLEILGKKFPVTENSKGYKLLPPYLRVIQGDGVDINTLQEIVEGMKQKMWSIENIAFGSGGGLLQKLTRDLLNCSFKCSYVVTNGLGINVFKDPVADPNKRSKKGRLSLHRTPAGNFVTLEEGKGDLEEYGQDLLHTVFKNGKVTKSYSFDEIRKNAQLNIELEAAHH

[17] = target: T3, Nicotinamide phosphoribosyltransferase; test: Inhibition of NAMPT (unknown origin)
Target sequence in this assay (P43490 whole entry): as the sequence (P43490 whole entry, looked up) above

[18] = target: T3, Nicotinamide phosphoribosyltransferase; test: Induction of degradation NAMPT (unknown origin)
Target sequence in this assay (P43490 whole entry): as the sequence (P43490 whole entry, looked up) above

[19] = target: T4, Focal adhesion kinase 1 (Homo sapiens, UniProt Q05397); test: Induction of degradation of Fak in human PC-3 cells; assay type: cell-based
[20] = target: T4, Focal adhesion kinase 1; test: Induction of degradation of Fak in human PC-3 cells assessed as maximum degradation relative to control; assay type: cell-based
[21] = target: T1, Histone-lysine N-methyltransferase EZH2; test: Induction of degradation of EZH2 degradation in human MDA-MB-453 cells; assay type: cell-based
Target sequence in this assay (Q15910 whole entry): as the sequence (Q15910 whole entry, looked up) above

[22] = Antiproliferative activity against human Triple-negative breast cancer cells assessed as cell growth inhibition; assay type: functional
[23] = Antiproliferative activity against human TNBC ductal adenocarcinoma cells assessed as cell growth inhibition; assay type: functional; conditions: Triple-negative breast cancer cell
[24] = Growth inhibition of human Triple-negative breast cancer cells; assay type: functional; conditions: Triple-negative breast cancer cell
[25] = target: T5, Aurora kinase A (Homo sapiens, UniProt O14965); test: Induction of degradation of AURORA-A in human MV4-11 cells; assay type: cell-based
T5 sequence (O14965 whole entry): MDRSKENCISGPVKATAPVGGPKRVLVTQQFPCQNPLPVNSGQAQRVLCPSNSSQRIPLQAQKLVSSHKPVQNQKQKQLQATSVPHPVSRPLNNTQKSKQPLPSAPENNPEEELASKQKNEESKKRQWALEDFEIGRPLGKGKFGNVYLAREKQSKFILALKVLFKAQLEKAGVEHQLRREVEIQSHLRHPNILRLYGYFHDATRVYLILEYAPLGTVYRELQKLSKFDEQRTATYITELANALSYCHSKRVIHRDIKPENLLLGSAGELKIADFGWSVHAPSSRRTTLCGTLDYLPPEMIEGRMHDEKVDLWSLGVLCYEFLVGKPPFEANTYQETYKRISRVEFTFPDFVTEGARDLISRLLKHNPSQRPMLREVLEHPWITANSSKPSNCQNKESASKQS

Sequence of Peptidyl-prolyl cis-trans isomerase FKBP1A (P62942 whole entry): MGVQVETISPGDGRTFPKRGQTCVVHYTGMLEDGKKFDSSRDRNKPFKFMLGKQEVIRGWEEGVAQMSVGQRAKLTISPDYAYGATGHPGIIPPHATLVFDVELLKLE

IC50 [2]: 1.2 nM
SMILES: COc1cc(Nc2ncc3c(n2)-c2ccc(Cl)cc2C(c2c(F)cccc2OC)=NC3)ccc1C(=O)O [ALISERTIB]

EC50 [3]: 109 nM
Emax [4]: 88%
SMILES: O=C(CCCO/N=C1/C(=C2/C(=O)N(Cc3cn(CCOCCNc4cccc5c4C(=O)C(N4CCC(=O)NC4=O)C5=O)nn3)c3ccccc32)Nc2ccccc21)NO (centres undefined)

Emax [5]: 82%
Emax [6]: 68%
IC50 [7]: 7 nM
EC50 [8]: 1500 nM
EC50 [9]: 200 nM
SMILES: Cc1cc(C)c(CNC(=O)c2cc(-c3ccc(N4CCN(CCNC(=O)CCOCCNc5cccc6c5C(=O)N(C5CCC(=O)NC5=O)C6=O)CC4)nc3)cc3c2cnn3C(C)C)c(=O)[nH]1 (centres undefined)

EC50 [11]: 33 nM
SMILES: C[C@H](CC(=O)N1CCC(O)(Cn2cnc3c(-c4ccc(CNCCCCCCCCCCCNc5cccc6c5C(=O)N(C5CCC(=O)NC5=O)C6=O)cc4)n(C)nc3c2=O)CC1)c1ccccc1 (some centres undefined)
IC50 [12]: 1180 nM
IC50 [13]: 1030 nM

EC50 [19]: 3 nM
Emax [20]: 99%
SMILES: Cc1ncsc1-c1ccc(CNC(=O)[C@@H]2C[C@@H](O)CN2C(=O)[C@@H](NC(=O)CCOCCOc2ccc(Nc3ncc(C(F)(F)F)c(NCc4cccc(N(C)S(C)(=O)=O)c4)n3)cc2)C(C)(C)C)cc1

EC50 [25]: 28 nM
SMILES: COc1cc(Nc2ncc3c(n2)-c2ccc(Cl)cc2C(c2c(F)cccc2OC)=NC3)ccc1C(=O)NCCOCCOCCNC(=O)COc1cccc2c1C(=O)N(C1CCC(=O)NC1=O)C2=O (centres undefined)

More lines, now with the values behind:

SMILES: COC1C[C@H](C[C@@H](C)[C@@H]2CC(=O)C(C)/C=C(\C)[C@@H](O)[C@@H](OC)C(=O)[C@H](C)C[C@H](C)/C=C/C=C/C=C(\C)[C@@H](OC)C[C@@H]3CC[C@@H](C)[C@](O)(O3)C(=O)C(=O)N3CCCC[C@H]3C(=O)O2)CCC1OCCOCc1cn(CCOCCOCCNc2cccc3c2C(=O)N(C2CCC(=O)NC2=O)C3=O)nn1 (some centres undefined)
EC50 [1]: 0.27 nM

SMILES: O=S(=O)(c1ccc(NC(=S)NCc2cccnc2)cc1)N1CCN(Cc2ccccc2)CC1
TGI [10]: 40%

SMILES: CNC(=O)c1ccccc1Nc1cc(Nc2ccc(N3CCN(CC(=O)N[C@H](C(=O)N4C[C@H](O)C[C@H]4C(=O)N[C@@H](C)c4ccc(-c5scnc5C)cc4)C(C)(C)C)CC3)cc2OC)ncc1C(F)(F)F
Emax [14]: 60%
Emax [15]: 85%

SMILES: C[C@H](CC(=O)N1CCC(O)(Cn2cnc3c(-c4ccc(CN)cc4)n(C)nc3c2=O)CC1)c1ccccc1
IC50 [12]: > 20000 nM
IC50 [13]: > 20000 nM

SMILES: Cc1ncsc1-c1ccc(C(C)NC(=O)C2CC(O)CN2C(=O)C(NC(=O)COCCOCCOCCOCCNC(=O)c2ccc(CN3CCN(S(=O)(=O)c4ccc(NC(=S)NCc5ccccc5)cc4)CC3)cc2)C(C)(C)C)cc1 (centres undefined)
Emax [16]: 90%
IC50 [17]: 9.5 nM
EC50 [18]: 7.1 nM
TGI [10]: 80%

SMILES: CCN(c1cc(-c2ccc(CN3CCN(C(=O)CCCCCCCC(=O)N[C@H](C(=O)N4C[C@H](O)C[C@H]4C(=O)NCc4ccc(-c5scnc5C)cc4)C(C)(C)C)CC3)cc2)cc(C(=O)NCc2c(C)cc(C)[nH]c2=O)c1C)C1CCOCC1
EC50 [21]: 140 nM
GI50 [22]: 1700 nM
GI50 [23]: 1400 nM

SMILES: CCN(c1cc(-c2ccc(CN3CCN(C(=O)CCCCCCCC(=O)N[C@H](C(=O)N4C[C@H](OCc5ccccc5)C[C@H]4C(=O)NCc4ccc(-c5scnc5C)cc4)C(C)(C)C)CC3)cc2)cc(C(=O)NCc2c(C)cc(C)[nH]c2=O)c1C)C1CCOCC1
IC50 [7]: 13 nM
GI50 [24]: > 10000 nM
